Source: patent US12590070B2, “Adamantane derivatives as inhibitors of focal adhesion kinase” (SAMJIN PHARMACEUTICAL CO., LTD., priority 2019, dated 2026)

What was measured:
[1] = molecular target: T1, InsR (Homo sapiens, UniProt P06213); test: ADP-Glo Kinase Assay, InsR; assay type: biochemical; settings: ADP-Glo Kinase Assay Kit
T1 construct: purchased Promega V9401
Method: (§1) Briefly, a kinase test was performed and quantified according to the manufacturer's instructions after treating the adamantane derivative compound of the present invention by using the ADP-Glo™ Kinase Assay Kit (FAK, Promega, V1971; Pyk2, Promega, V4083; InsR, Promega, V9401) containing each kinase of Promega.

[2] = molecular target: T2, FAK (Homo sapiens, UniProt Q05397); test: ADP-Glo Kinase Assay, FAK; assay type: biochemical; parameters: purchased Promega V1971; settings: ADP-Glo Kinase Assay Kit
T2 sequence (Q05397 whole entry): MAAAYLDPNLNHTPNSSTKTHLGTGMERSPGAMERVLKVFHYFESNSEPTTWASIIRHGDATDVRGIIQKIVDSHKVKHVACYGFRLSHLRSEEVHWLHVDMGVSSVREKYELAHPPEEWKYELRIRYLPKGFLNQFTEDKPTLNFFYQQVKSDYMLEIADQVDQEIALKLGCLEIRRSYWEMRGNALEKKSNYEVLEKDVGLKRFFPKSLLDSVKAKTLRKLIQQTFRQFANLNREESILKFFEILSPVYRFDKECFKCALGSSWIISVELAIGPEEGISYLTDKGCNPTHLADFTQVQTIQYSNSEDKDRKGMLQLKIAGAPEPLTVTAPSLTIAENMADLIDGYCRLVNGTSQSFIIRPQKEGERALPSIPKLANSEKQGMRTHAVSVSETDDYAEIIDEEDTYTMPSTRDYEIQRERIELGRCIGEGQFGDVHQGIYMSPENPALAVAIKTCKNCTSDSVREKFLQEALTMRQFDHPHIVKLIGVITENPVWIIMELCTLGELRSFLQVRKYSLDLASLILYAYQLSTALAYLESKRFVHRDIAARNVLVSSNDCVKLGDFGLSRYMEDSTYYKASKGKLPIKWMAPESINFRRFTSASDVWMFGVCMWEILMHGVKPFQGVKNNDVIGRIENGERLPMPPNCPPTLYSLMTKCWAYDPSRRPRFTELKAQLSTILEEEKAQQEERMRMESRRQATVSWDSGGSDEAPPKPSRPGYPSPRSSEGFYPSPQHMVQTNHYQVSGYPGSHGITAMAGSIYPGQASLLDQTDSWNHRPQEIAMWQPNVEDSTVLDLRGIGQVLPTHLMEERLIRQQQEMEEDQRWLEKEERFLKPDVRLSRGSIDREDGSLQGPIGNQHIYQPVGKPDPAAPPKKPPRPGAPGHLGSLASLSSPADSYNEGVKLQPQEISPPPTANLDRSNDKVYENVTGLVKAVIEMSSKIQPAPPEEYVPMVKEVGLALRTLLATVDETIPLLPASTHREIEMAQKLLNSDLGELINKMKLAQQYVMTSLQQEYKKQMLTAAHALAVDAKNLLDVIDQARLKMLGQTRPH
Method: as §1

[3] = molecular target: T2, FAK; test: FAK [pY397] ELISA in MDA-MB-231 cells; assay type: cell-based; parameters: endogenous in cells; host or cells: MDA-MB-231; settings: MDA-MB-231, treated for one hour, Table 2; read-out: FAK inhibitory activity (IC50)
Method: Briefly, an enzyme-linked immunosorbent assay test was performed according to the manufacturer's instructions by using the FAK (Phospho) [pY397] Human ELISA Kit (Thermo Fisher Scientific, KH00441) after dispensing 1×10^6 MDA-MB-231 cells into each well of a 6-well plate, inducing cell stabilization for 24 hours, and treating each compound at different concentrations (o, 1, 5, 10, 50, 100, 500, 1000 nM) for one hour.

[4] = molecular target: T3, Pyk2 (Homo sapiens, UniProt Q14289); test: ADP-Glo Kinase Assay, Pyk2; assay type: biochemical; settings: ADP-Glo Kinase Assay Kit
T3 construct: purchased Promega V4083
T3 sequence (Q14289 whole entry): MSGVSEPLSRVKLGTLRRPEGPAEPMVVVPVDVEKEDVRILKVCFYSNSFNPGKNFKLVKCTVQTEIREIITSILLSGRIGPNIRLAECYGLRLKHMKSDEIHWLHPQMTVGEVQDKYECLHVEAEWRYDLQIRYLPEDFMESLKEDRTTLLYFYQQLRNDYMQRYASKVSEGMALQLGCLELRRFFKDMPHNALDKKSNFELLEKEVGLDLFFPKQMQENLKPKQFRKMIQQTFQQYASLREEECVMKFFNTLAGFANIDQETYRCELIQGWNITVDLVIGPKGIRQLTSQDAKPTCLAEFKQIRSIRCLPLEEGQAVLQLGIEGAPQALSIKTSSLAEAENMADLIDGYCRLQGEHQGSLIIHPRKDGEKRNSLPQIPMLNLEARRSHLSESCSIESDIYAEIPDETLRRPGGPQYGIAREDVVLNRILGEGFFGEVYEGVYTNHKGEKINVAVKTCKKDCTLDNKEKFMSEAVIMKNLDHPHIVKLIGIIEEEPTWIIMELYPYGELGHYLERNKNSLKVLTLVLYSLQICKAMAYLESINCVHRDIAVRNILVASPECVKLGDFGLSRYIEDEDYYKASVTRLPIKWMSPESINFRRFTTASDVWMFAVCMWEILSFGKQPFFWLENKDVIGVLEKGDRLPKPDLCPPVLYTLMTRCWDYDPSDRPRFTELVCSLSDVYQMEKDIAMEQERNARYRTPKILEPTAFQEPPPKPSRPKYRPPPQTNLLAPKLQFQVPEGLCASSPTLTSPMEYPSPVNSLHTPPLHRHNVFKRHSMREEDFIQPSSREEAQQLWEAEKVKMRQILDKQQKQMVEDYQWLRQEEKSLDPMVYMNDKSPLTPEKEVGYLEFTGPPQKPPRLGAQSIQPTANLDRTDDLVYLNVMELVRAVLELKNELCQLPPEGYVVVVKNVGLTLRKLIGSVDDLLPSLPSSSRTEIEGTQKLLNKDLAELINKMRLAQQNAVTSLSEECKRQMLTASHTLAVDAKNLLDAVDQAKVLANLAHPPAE
Method: as §1

T1 sequence (P06213 28-1382): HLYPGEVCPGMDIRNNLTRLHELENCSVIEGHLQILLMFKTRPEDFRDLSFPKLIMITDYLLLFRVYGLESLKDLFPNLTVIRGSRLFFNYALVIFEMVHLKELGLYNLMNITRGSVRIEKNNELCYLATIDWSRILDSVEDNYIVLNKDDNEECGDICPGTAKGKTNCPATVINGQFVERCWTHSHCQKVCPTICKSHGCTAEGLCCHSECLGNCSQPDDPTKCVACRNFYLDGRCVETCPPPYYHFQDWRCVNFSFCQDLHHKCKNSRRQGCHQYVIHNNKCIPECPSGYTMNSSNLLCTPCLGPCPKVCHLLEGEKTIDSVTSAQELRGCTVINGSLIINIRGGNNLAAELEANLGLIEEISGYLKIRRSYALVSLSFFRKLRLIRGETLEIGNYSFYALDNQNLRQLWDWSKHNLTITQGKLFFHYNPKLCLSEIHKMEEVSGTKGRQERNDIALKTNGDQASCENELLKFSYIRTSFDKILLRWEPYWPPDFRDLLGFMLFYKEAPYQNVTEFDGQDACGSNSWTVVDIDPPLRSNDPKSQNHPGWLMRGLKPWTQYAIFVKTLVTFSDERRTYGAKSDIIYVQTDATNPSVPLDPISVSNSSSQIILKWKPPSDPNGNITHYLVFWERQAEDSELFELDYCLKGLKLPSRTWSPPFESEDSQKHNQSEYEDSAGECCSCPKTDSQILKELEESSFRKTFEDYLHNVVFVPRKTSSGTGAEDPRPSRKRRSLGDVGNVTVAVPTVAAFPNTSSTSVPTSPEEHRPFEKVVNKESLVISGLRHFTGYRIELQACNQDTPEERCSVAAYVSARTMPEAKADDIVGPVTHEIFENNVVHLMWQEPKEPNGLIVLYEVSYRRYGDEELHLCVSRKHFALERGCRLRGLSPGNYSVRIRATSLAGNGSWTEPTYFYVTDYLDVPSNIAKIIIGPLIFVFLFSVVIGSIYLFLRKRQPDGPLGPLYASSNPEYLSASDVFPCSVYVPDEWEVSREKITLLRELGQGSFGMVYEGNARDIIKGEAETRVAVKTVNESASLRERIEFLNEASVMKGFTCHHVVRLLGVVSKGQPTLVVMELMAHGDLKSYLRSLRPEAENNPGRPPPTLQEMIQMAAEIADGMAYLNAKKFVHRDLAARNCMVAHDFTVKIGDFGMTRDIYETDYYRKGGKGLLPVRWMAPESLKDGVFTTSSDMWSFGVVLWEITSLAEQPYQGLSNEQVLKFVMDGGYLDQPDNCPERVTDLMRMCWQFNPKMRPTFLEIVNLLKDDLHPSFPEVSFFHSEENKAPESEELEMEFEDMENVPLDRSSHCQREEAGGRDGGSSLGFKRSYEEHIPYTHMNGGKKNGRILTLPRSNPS

Structure (SMILES)	IC50 [1] [nM]	IC50 [2] [nM]	IC50 [3] [nM]	IC50 [4] [nM]
CNC(=O)c1cccc(C)c1Nc1nc(Nc2ccc(NC3C4CC5CC(C4)CC3C5)cc2OC)ncc1C(F)(F)F (stereo not shown) [Compound 2, 2-((2-((4-(adamantan-2-ylamino)-2-methoxyphenyl)amino)-5-(trifluoromethyl)pyrimidin-4-yl)amino)-N,3-dimethylbenzamide]	> 10000	206	111	–
CNC(=O)c1cccc(C)c1Nc1nc(Nc2ccc(OC3CCN(C4C5CC6CC(C5)CC4C6)CC3)cc2OC)ncc1C(F)(F)F (stereo not shown) [Compound 9, 2-((2-((4-((1-(adamantan-2-yl)piperidin-4-yl)oxy)-2-methoxyphenyl)amino)-5-(trifluoromethyl)pyrimidin-4-yl)amino)-N,3-dimethylbenzamide]	> 10000	98.1	–	–
CNC(=O)c1cccc(C)c1Nc1nc(Nc2ccc(OC3C4CC5CC3CC(C(=O)NC)(C5)C4)cc2OC)ncc1C(F)(F)F (stereo not shown) [Compound 18, 4-(3-methoxy-4-((4-((2-methyl-6-(methylcarbamoyl)phenyl)amino)-5-(trifluoromethyl)pyrimidin-2-yl)amino)phenoxy)-N-methyladamantan-1-carboxamide]	–	92.9	–	–
CNC(=O)c1cccc(C)c1Nc1nc(Nc2ccc(OC3C4CC5CC3CC(C(=O)N3CCOCC3)(C5)C4)cc2OC)ncc1C(F)(F)F (stereo not shown) [Compound 19, 2-((2-((2-methoxy-4-((5-(morpholin-4-carbonyl)adamantan-2-yl)oxy)phenyl)amino)-5-(trifluoromethyl)pyrimidin-4-yl)amino)-N,3-dimethylbenzamide]	–	127	–	–
CNC(=O)c1cccc(C)c1Nc1nc(Nc2ccc(OC3C4CC5CC3CC(C(=O)N3CCN(C)CC3)(C5)C4)cc2OC)ncc1C(F)(F)F (stereo not shown) [Compound 20, 2-((2-((2-methoxy-4-((5-(4-methylpiperazin-1-carbonyl)adamantan-2-yl)oxy)phenyl)amino)-5-(trifluoromethyl)pyrimidin-4-yl)amino)-N,3-dimethylbenzamide]	–	98.9	153	–
CNC(=O)c1cccc(C)c1Nc1nc(Nc2ccc(NC3C4CC5CC3CC(C(=O)N3CCN(C)CC3)(C5)C4)cc2OC)ncc1C(F)(F)F (stereo not shown) [Compound 23, 2-((2-((2-methoxy-4-((5-(4-methylpiperazin-1-carbonyl)adamantan-2-yl)amino)phenyl)amino)-5-(trifluoromethyl)pyrimidin-4-yl)amino)-N,3-dimethylbenzamide]	–	77.5	234	–
CNC(=O)c1cccc(C)c1Nc1nc(Nc2ccc(NC(=O)[C@]34CC5CC(C3)[C@@H](N3CC[C@H](N)C3)C(C5)C4)cc2OC)ncc1C(F)(F)F [Compound 30, (trans)-4-((S)-3-aminopyrrolidin-1-yl)-N-(3-methoxy-4-((4-((2-methyl-6-(methylcarbamoyl)phenyl)amino)-5-(trifluoromethyl)pyrimidin-2-yl)amino)phenyl) adamantan-1-carboxamide]	3800	–	–	18.2
CNC(=O)c1cccc(C)c1Nc1nc(Nc2ccc(C3CCN([C@H]4C5CC6CC4C[C@](O)(C6)C5)CC3)cc2OC)ncc1C(F)(F)F [Compound 32, 2-((2-((4-(1-((trans)-5-hydroxyadamantan-2-yl)piperidin-4-yl)-2-methoxyphenyl)amino)-5-(trifluoromethyl)pyrimidin-4-yl)amino)-N,3-dimethylbenzamide]	2150	–	–	154
CNC(=O)c1cccc(C)c1Nc1nc(Nc2ccc(C3CCN([C@H]4C5CC6CC4C[C@@](O)(C6)C5)CC3)cc2OC)ncc1C(F)(F)F [Compound 33, 2-((2-((4-(1-((cis)-5-hydroxyadamantan-2-yl)piperidin-4-yl)-2-methoxyphenyl)amino)-5-(trifluoromethyl)pyrimidin-4-yl)amino)-N,3-dimethylbenzamide]	2050	–	–	101
COc1cc(C2CCN([C@H]3C4CC5CC3C[C@](O)(C5)C4)CC2)ccc1Nc1ncc(C(F)(F)F)c(Nc2c(C)cccc2C(N)=O)n1 [Compound 34, 2-((2-((4-(1-((trans)-5-hydroxyadamantan-2-yl)piperidin-4-yl)-2-methoxyphenyl)amino)-5-(trifluoromethyl)pyrimidin-4-yl)amino)-3-methylbenzamide]	1640	–	–	427
COc1cc(C2CCN([C@H]3C4CC5CC3C[C@](O)(C5)C4)CC2)ccc1Nc1ncc(C(F)(F)F)c(Nc2c(C)cccc2C(N)=O)n1 [Compound 35, 2-((2-((4-(1-((cis)-5-hydroxyadamantan-2-yl)piperidin-4-yl)-2-methoxyphenyl)amino)-5-(trifluoromethyl)pyrimidin-4-yl)amino)-3-methylbenzamide]	1440	–	–	418

Continued by falling IC50 [2], values first:

IC50 [1] [nM]	IC50 [2] [nM]	IC50 [3] [nM]	IC50 [4] [nM]	Structure (SMILES)
–	70	–	–	CNC(=O)c1cccc(C)c1Nc1nc(Nc2ccc(N3CCN([C@H]4C5CC6CC4C[C@@](C(=O)OC)(C6)C5)CC3)cc2OC)ncc1C(F)(F)F [Compound 38, methyl (cis)-4-(4-(3-methoxy-4-((4-((2-methyl-6-(methylcarbamoyl)phenyl)amino)-5-(trifluoromethyl)pyrimidin-2-yl)amino)phenyl)piperazin-1-yl) adamantan-1-carboxylate]
4680	69.9	32	–	CNC(=O)c1cccc(C)c1Nc1nc(Nc2ccc(N3CCN([C@H]4C5CC6CC4C[C@@](O)(C6)C5)CC3)cc2OC)ncc1C(F)(F)F [Compound 5, 2-((2-((4-(4-((cis)-5-hydroxyadamantan-2-yl)piperazin-1-yl)-2-methoxyphenyl)amino)-5-(trifluoromethyl)pyrimidin-4-yl)amino)-N,3-dimethylbenzamide]
–	61.4	–	–	CNC(=O)c1cccc(C)c1Nc1nc(Nc2ccc(N3CCN([C@H]4C5CC6CC4C[C@@](O)(C6)C5)CC3)cc2OC)ncc1Cl [Compound 36, 2-((5-chloro-2-((4-(4-((trans)-5-hydroxyadamantan-2-yl)piperazin-1-yl)-2-methoxyphenyl)amino)-pyrimidin-4-yl)amino)-N,3-dimethylbenzamide]
–	58.3	–	–	CNC(=O)c1cccc(C)c1Nc1nc(Nc2ccc(N3CCN([C@H]4C5CC6CC4C[C@](C(=O)O)(C6)C5)CC3)cc2OC)ncc1C(F)(F)F [Compound 40, (cis)-4-(4-(3-methoxy-4-((4-((2-methyl-6-(methylcarbamoyl)phenyl)amino)-5-(trifluoromethyl)pyrimidin-2-yl)amino)phenyl)piperazin-1-yl) adamantan-1-carboxylic acid]
–	58	–	–	CNC(=O)c1cccc(C)c1Nc1nc(Nc2ccc(N3CCN([C@H]4C5CC6CC4C[C@](C(=O)O)(C6)C5)CC3)cc2OC)ncc1C(F)(F)F [Compound 39, (trans)-4-(4-(3-methoxy-4-((4-((2-methyl-6-(methylcarbamoyl)phenyl)amino)-5-(trifluoromethyl)pyrimidin-2-yl)amino)phenyl)piperazin-1-yl) adamantan-1-carboxylic acid]
–	57	–	–	CNC(=O)c1cccc(C)c1Nc1nc(Nc2ccc(O[C@]34CC5CC(C3)[C@@H](N3CC[C@H](NC(C)=O)C3)C(C5)C4)cc2OC)ncc1C(F)(F)F [Compound 14, 2-((2-((4-(((trans)-4-((S)-3-acetamidopyrrolidin-1-yl)adamantan-1-yl)oxy)-2-methoxyphenyl)amino)-5-(trifluoromethyl)pyrimidin-4-yl)amino)-N,3-dimethylbenzamide]
–	57	–	–	CNC(=O)c1cccc(C)c1Nc1nc(Nc2ccc(NC3C4CC5CC3CC(C(=O)N3CCOCC3)(C5)C4)cc2OC)ncc1C(F)(F)F (stereo not shown) [Compound 22, 2-((2-((2-methoxy-4-((5-(morpholin-4-carbonyl)adamantan-2-yl)amino)phenyl)amino)-5-(trifluoromethyl)pyrimidin-4-yl)amino)-N,3-dimethylbenzamide]
> 10000	53.3	121	–	CNC(=O)c1cccc(C)c1Nc1nc(Nc2ccc(NC3CCN([C@H]4C5CC6CC4C[C@@](O)(C6)C5)CC3)cc2OC)ncc1C(F)(F)F [Compound 8, 2-((2-((4-((1-((cis)-5-hydroxyadamantan-2-yl)piperidin-4-yl)amino)-2-methoxyphenyl)amino)-5-(trifluoromethyl)pyrimidin-4-yl)amino)-N,3-dimethylbenzamide]
–	43.6	–	–	CNC(=O)c1cccc(C)c1Nc1nc(Nc2ccc(N3CCN([C@H]4C5CC6CC4C[C@](C(=O)OC)(C6)C5)CC3)cc2OC)ncc1C(F)(F)F [Compound 37, methyl (trans)-4-(4-(3-methoxy-4-((4-((2-methyl-6-(methylcarbamoyl)phenyl)amino)-5-(trifluoromethyl)pyrimidin-2-yl)amino)phenyl)piperazin-1-yl) adamantan-1-carboxylate]
> 10000	29	–	64.5	CNC(=O)c1cccc(C)c1Nc1nc(Nc2ccc(NC(=O)[C@]34CC5CC(C3)[C@H](N3CC[C@H](NC(C)=O)C3)C(C5)C4)cc2OC)ncc1C(F)(F)F [Compound 28, (cis)-4-((S)-3-acetamidopyrrolidin-1-yl)-N-(3-methoxy-4-((4-((2-methyl-6-(methylcarbamoyl)phenyl)amino)-5-(trifluoromethyl)pyrimidin-2-yl)amino)phenyl) adamantan-1-carboxamide]
